These results are taken from patent publication US6399643B1, “Spiroimidazolidine derivatives, their preparation, their use and pharmaceutical preparations formed therefrom” (Aventis Pharma Deutschland GmbH, priority 1999, dated 2002).

In general, IC50 refers to the concentration at which inhibition is half-maximal. Read a low IC50 as inhibition by little substance.

Molecules are shown by their SMILES. Where a name gives a salt, the structure may show the parent alone.

T1 sequence (P13612 34-1032): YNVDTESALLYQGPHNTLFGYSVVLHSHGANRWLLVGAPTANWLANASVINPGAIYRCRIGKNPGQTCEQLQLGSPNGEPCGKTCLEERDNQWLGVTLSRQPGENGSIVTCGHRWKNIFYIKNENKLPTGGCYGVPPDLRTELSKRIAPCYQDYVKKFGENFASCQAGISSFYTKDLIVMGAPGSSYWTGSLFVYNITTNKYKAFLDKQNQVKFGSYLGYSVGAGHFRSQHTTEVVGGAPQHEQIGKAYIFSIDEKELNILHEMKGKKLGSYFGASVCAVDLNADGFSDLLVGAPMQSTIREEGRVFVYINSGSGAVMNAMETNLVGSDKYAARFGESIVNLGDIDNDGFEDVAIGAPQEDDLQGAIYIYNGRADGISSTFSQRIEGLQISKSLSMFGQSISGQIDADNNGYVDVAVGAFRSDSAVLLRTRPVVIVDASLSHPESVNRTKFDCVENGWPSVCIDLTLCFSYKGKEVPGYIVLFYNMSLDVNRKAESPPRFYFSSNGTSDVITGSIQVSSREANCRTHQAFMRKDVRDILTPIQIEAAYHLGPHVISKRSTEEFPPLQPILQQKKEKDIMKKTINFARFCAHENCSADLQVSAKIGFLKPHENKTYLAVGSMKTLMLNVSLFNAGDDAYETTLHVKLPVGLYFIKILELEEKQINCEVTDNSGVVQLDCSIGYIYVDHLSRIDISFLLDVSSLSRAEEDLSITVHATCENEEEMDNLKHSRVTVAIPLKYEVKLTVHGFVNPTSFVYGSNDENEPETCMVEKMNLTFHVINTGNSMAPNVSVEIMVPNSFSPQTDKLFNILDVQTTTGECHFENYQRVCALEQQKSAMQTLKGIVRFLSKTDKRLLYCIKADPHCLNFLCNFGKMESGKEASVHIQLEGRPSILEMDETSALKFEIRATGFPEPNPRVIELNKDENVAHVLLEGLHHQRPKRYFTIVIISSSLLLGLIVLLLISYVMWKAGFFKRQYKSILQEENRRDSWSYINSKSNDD
T1 sequence (P05556 21-798): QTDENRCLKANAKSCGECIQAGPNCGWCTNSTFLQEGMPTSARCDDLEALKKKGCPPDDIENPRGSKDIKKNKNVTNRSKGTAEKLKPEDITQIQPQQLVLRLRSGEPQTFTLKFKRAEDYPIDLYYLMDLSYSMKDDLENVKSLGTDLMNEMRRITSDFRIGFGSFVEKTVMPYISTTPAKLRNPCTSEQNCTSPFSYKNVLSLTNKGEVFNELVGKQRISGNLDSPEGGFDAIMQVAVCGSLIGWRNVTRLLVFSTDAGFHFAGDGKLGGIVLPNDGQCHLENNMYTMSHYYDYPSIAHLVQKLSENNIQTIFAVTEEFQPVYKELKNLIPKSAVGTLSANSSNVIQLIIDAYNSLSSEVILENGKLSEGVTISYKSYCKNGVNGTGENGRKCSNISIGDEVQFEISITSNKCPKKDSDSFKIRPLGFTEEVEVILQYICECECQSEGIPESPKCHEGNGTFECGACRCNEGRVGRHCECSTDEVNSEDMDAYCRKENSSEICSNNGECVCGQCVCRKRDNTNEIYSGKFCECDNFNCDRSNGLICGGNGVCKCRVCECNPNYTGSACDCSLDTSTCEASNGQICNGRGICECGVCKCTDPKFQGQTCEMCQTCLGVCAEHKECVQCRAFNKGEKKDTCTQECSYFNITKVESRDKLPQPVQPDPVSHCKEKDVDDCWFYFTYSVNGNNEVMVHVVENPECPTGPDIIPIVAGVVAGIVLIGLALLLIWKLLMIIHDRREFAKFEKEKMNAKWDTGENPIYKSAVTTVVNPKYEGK

This test addresses T1, interaction between VCAM-1 and VLA-4 (Homo sapiens, UniProt P05556+P13612).
T1 construct: supplied in their natural form as surface molecules on human U937 cells; host or cells: human U937 cells (VLA-4, endogenous); the partner hVCAM-1(1-3)-IgG was made in house in transfected COS cells (ATCC CRL1651) and used as culture supernatant
Description: U937/VCAM-1 cell adhesion test (adhesion of U937 cells to hVCAM-1(1-3)-IgG). It counts as cell-based. As to conditions: inhibition of adhesion of human U937 cells (ATCC CRL 1593) to hVCAM-1(1-3)-IgG. From the text: A) U937/VCAM-1 Cell Adhesion Test
The test method used for the activity of the compounds of the formula I on the interaction between VCAM-1 and VLA-4 is the assay described below, which is specific for this interaction. The cellular binding components, that is the VLA-4 integrins, are supplied in their natural form as surface molecules on human U937 cells (ATCC CRL 1593), which belong to the leukocytes group. The specific binding components used are genetically engineered recombinant soluble fusion proteins, consisting of the extracytoplasmic domain of human VCAM-1 and the constant region of a human immunoglobulin of the subclass IgG1.
Assay for the Measurement of the Adhesion of U937 Cells (ATCC CRL 1593) to hVCAM-1 (1-3)-IgG
1. Preparation of Human VCAM-1(1-3)-IgG and Human CD4-IgG
A genetic construct for the expression of the extracellular domain of human VCAM-1, combined with the genetic sequence of the heavy chain of human immunoglobulin IgG1 (hinge, CH2 and CH3 regions) (from Brian Seed, Massachusetts General Hospital, Boston, USA; cf. Damle and Aruffo, Proc. Natl. Acad. Sci. USA 1991, 88, 6403), was employed. The soluble fusion protein hVCAM-1(1-3)-IgG contained the three aminoterminal extracellular immunoglobulin-like domains of human VCAM-1 (Damle and Aruffo, Proc. Natl. Acad. Sci. USA 1991, 88, 6403). CD4-IgG (Zettlmeissl et al., DNA and Cell Biology 1990, 9, 347) served as a fusion protein for negative controls. The recombinant proteins were expressed as soluble proteins after DEAE/dextran-mediated DNA transfection in COS cells (ATCC CRL1651) according to standard procedures (Ausubel et al., Current protocols in molecular biology, John Wiley & Sons, Inc., 1994).
2. Assay for the Measurement of the Adhesion of U937 Cells to hVCAM-1(1-3)-IgG
2.1 96-well microtiter test plates (Nunc Maxisorb) were incubated at room temperature for 1 hour with 100 μl/well of a goat-anti-human IgG antibody solution (10 μg/ml in 50 mM tris, pH 9.5). After removal of the antibody solution, washing was carried out once with PBS.
2.2 150 μl/well of a blocking buffer (1% BSA in PBS) were incubated on the plates at room temperature for 0.5 hour. After removal of the blocking buffer, washing was carried out once with PBS.
2.3 100 μl per well of a cell culture supernatant of transfected COS cells were incubated on the plates at room temperature for 1.5 hours. The COS cells were transfected with a plasmid which codes for the three N-terminal immunoglobulin-like domains of VCAM-1, coupled to the Fc portion of human IgG1 (hVCAM-1 (1-3)-IgG). The content of hVCAM-1(1-3)-IgG was about 0.5-1 μg/ml. After removing the culture supernatant, washing was carried out once with PBS.
2.4 The plates were incubated at room temperature for 20 minutes with 100 μl/well of Fc receptor blocking buffer (1 mg/ml of γ-globulin, 100 mM NaCl, 100 μM MgCl2, 100 μM MnCl2, 100 μM CaCl2, 1 mg/ml of BSA in 50 mM HEPES, pH 7.5). After removal of the Fc receptor blocking buffer, washing was carried out once with PBS.
2.5 20 μl of binding buffer (100 μM NaCl, 100 μM MgCl2, 100 μM MnCl2, 100 μM CaCl2, 1 mg/ml of BSA in 50 mM HEPES, pH 7.5) were initially introduced, and the substances to be tested were added in 10 μl of binding buffer and incubated for 20 minutes. The controls used were antibodies against VCAM-1(BBT, No. BBA6) and against VLA-4(Immunotech, No. 0764).
2.6 U937 cells were incubated in Fc receptor blocking buffer for 20 minutes and then pipetted in at a concentration of 1×10^6/ml and in an amount of 100 μl per well ([…]).
2.7 The plates were slowly immersed at an angle of 45° in stop buffer (100 mM NaCl, 100 μM MgCl2, 100 μM MnCl2, 100 μM CaCl2 in 25 mM Tris, pH 7.5) and shaken off. The process was repeated.
2.8 50 μl/well of a dye solution ([…] of Hoechst Dye 33258, 4% formaldehyde, 0.5% Triton X-100 in PBS) were then incubated on the plates for 15 minutes. […]
For the molecule `CC(C)C[C@@H](C(=O)N[C@@H](CC(=O)O)c1ccccc1)N1C(=O)N(Cc2ccc(NC(=O)Nc3ccccc3)cc2)C2(CCCCC2)C1=O` [Example 1, (S)-3-((S)-2-(4,4-Pentamethylene-3-(4-(3-phenylureido)benzyl)-2,5-dioxoimidazolidin-1-yl)-2-(2-methylpropyl)acetylamino)-3-phenylpropionic acid], 3.2 nM corresponded to half-maximal inhibition (IC50). `CC(C)C[C@@H](C(=O)N[C@@H](CC(=O)O)c1ccccc1)N1C(=O)N(Cc2ccc(NC(=O)Nc3ccccc3)cc2)C2(CCCCC2)C1=O` [Example 2, (S)-3-((S)-2-(4,4-Pentamethylene-3-(4-(3-phenylureido)benzyl)-2,5-dioxoimidazolidin-1-yl)-2-(2-methylpropyl)acetylamino)-3-phenylpropionic acid tromethamine salt] had an IC50 of 4.5 nM.

In turn, `CC(C)C[C@@H](C(=O)N[C@H](C)CC(=O)O)N1C(=O)N(Cc2ccc(NC(=O)Nc3ccccc3)cc2)C2(CCCCC2)C1=O` [Example 3, (R)-3-((S)-2-(4,4-Pentamethylene-3-(4-(3-phenylureido)benzyl)-2,5-dioxoimidazolidin-1-yl)-2-(2-methylpropyl)acetylamino)-3-methylpropionic acid] gave an IC50 of 17 nM. The figure for `CC(C)C[C@H](CC(=O)O)NC(=O)[C@H](CC(C)C)N1C(=O)N(Cc2ccc(NC(=O)Nc3ccccc3)cc2)C2(CCCCC2)C1=O` [Example 4, (R)-3-((S)-2-(4,4-Pentamethylene-3-(4-(3-phenylureido)benzyl)-2,5-dioxoimidazolidin-1-yl)-2-(2-methylpropyl)acetylamino)-3-(2-methylpropyl)propionic acid] is 85.4 nM; for `Cc1ccccc1NC(=O)Nc1ccc(CN2C(=O)N([C@@H](CC(C)C)C(=O)N[C@@H](CC(=O)O)c3ccccc3)C(=O)C23CCCCC3)cc1` [Example 8, (S)-3-((S)-2-(4,4-Pentamethylene-3-(4-(3-(2-methylphenyl)ureido)benzyl)-2,5-dioxoimidazolidin-1-yl)-2-(2-methylpropyl)acetylamino)-3-phenylpropionic acid] it is 3.2 nM. The figure for `Cc1ccccc1NC(=O)Nc1ccc(CN2C(=O)N([C@@H](CC(C)C)C(=O)N[C@H](C)CC(=O)O)C(=O)C23CCCCC3)cc1` [Example 9, (R)-3-((S)-2-(4,4-Pentamethylene-3-(4-(3-(2-methylphenyl)ureido)benzyl)-2,5-dioxoimidazolidin-1-yl)-2-(2-methylpropyl)acetylamino)-3-methylpropionic acid] is 2.2 nM. `COc1ccc([C@H](CC(=O)O)NC(=O)[C@H](CC(C)C)N2C(=O)N(Cc3ccc(NC(=O)Nc4ccccc4)cc3)C3(CCCCC3)C2=O)cc1` [Example 16, (S)-3-((S)-2-(4,4-Pentamethylene-3-(4-(3-phenylureido)benzyl)-2,5-dioxoimidazolidin-1-yl)-2-(2-methylpropyl)acetylamino)-3-(4-methoxyphenyl)propionic acid] showed a half-inhibitory concentration (IC50) of 4 nM.

`COc1ccc([C@H](CC(=O)O)NC(=O)[C@H](CC(C)C)N2C(=O)N(Cc3ccc(NC(=O)Nc4ccccc4)cc3)C3(CCCCC3)C2=O)cc1` [Example 17, (S)-3-((S)-2-(4,4-Pentamethylene-3-(4-(3-phenylureido)benzyl)-2,5-dioxoimidazolidin-1-yl)-2-(2-methylpropyl)acetylamino)-3-(4-methoxyphenyl)propionic acid tromethamine salt] registered an IC50 of 1.9 nM. As for `COc1ccc([C@H](CC(=O)O)NC(=O)[C@H](CC(C)C)N2C(=O)N(Cc3ccc(NC(=O)Nc4ccccc4)cc3)C3(CCCCC3)C2=O)c(OC)c1` [Example 18, (S)-3-((S)-2-(4,4-Pentamethylene-3-(4-(3-phenylureido)benzyl)-2,5-dioxoimidazolidin-1-yl)-2-(2-methylpropyl)acetylamino)-3-(2,4-dimethoxyphenyl)propionic acid], inhibition was half-maximal at 2.4 nM (IC50). The figure for `COc1ccc([C@H](CC(=O)O)NC(=O)[C@H](CC(C)C)N2C(=O)N(Cc3ccc(NC(=O)Nc4ccccc4)cc3)C3(CCCCC3)C2=O)c(OC)c1` [Example 19, (S)-3-((S)-2-(4,4-Pentamethylene-3-(4-(3-phenylureido)benzyl)-2,5-dioxoimidazolidin-1-yl)-2-(2-methylpropyl)acetylamino)-3-(2,4-dimethoxyphenyl)propionic acid tromethamine salt] is 3 nM; for `COc1ccc([C@H](CC(=O)O)NC(=O)[C@H](CC(C)C)N2C(=O)N(Cc3ccc(NC(=O)Nc4ccccc4)cc3)C3(CCCCC3)C2=O)cc1OC` [Example 20, (S)-3-((S)-2-(4,4-Pentamethylene-3-(4-(3-phenylureido)benzyl)-2,5-dioxoimidazolidin-1-yl)-2-(2-methylpropyl)acetylamino)-3-(3,4-dimethoxyphenyl)propionic acid] it is 1.6 nM. In turn, `COc1ccc([C@H](CC(=O)O)NC(=O)[C@H](CC(C)C)N2C(=O)N(Cc3ccc(NC(=O)Nc4ccccc4)cc3)C3(CCCCC3)C2=O)cc1OC` [Example 21, (S)-3-((S)-2-(4,4-Pentamethylene-3-(4-(3-phenylureido)benzyl)-2,5-dioxoimidazolidin-1-yl)-2-(2-methylpropyl)acetylamino)-3-(3,4-dimethoxyphenyl)propionic acid tromethamine salt] showed an IC50 of 3 nM. Consider `COc1cccc([C@H](CC(=O)O)NC(=O)[C@H](CC(C)C)N2C(=O)N(Cc3ccc(NC(=O)Nc4ccccc4)cc3)C3(CCCCC3)C2=O)c1` [Example 22, (S)-3-((S)-2-(4,4-Pentamethylene-3-(4-(3-phenylureido)benzyl)-2,5-dioxoimidazolidin-1-yl)-2-(2-methylpropyl)acetylamino)-3-(3-methoxyphenyl)propionic acid], for which the IC50 worked out at 6.7 nM. `Cc1ccccc1NC(=O)Nc1ccc(CN2C(=O)N([C@@H](CC(C)C)C(=O)N[C@@H](CC(=O)O)c3ccccc3)C(=O)C23CCCCC3)cc1` [Example 23, (S)-3-((S)-2-(4,4-Pentamethylene-3-(4-(3-(2-methylphenyl)ureido)benzyl)-2,5-dioxoimidazolidin-1-yl)-2-(2-methylpropyl)acetylamino)-3-phenylpropionic acid tromethamine salt]: the IC50 is 5.5 nM. `Cc1ccccc1NC(=O)Nc1ccc(CN2C(=O)N([C@@H](CC(C)C)C(=O)N[C@H](C)CC(=O)O)C(=O)C23CCCCC3)cc1` [Example 24, (R)-3-((S)-2-(4,4-Pentamethylene-3-(4-(3-(2-methylphenyl)ureido)benzyl)-2,5-dioxoimidazolidin-1-yl)-2-(2-methylpropyl)acetylamino)-3-methylpropionic acid tromethamine salt] came in with an IC50 of 1.7 nM.
